System: Rhizoctonia solani
Assay: Soybean seed treatment test in soil contaminated by Rhizoctonia solani (disease control efficacy)
Type: in vivo, Rhizoctonia solani on soybean (variety: Natto shoryu)
Details: seed treatment of soybean; carboxamide compound alone 0.2 g/100 kg of seeds; cultivated 20 days in contaminated soil; versus non-treated plot
Description: A cyclohexanone solution (100 microL) containing prescribed amount (weight) of a test compound was applied on seeds of soybean (variety: Natto shoryu) (10 g) by using a rotary apparatus for seed treatment (Seed dresser, manufactured by Hans-Ulrich Hege GmbH).
One day after the application, plastic pot was filled with soil contaminated by Rhizoctonia solani, and the seeds treated with the test compounds were seeded in the soil and cultivated in a glass-greenhouse for 20 days (hereinafter referred to as “treated plot”).
Thereafter, the presence of disease caused by Rhizoctonia solani in the young plants which germinated from each seed was observed and disease severity was calculated according to the following calculation formula (1).
On the other hand, seeds of soybean which were not treated as above were cultivated in the same way as above (hereinafter referred to as “non-treated plot”) and the disease severity in the “non-treated plot” was calculated in the same way as the above “treated plot”. On the basis of the above disease severity in “treated plot” and “non-treated plot”, efficacy in “treated plot” was evaluated according to the following calculation formula (2). […]

CC1CC(C)(C)c2cccc(NC(=O)c3cn(C)nc3C(F)F)c21 (centres unmarked) [carboxamide compound (1)]
efficacy (%): 47.4%

Cc1nn(C)c(C)c1C(=O)Nc1cccc2c1C(C)CC2(C)C (centres unmarked) [carboxamide compound (5)]
efficacy (%): 15.8%

— patent US8940781B2, “Pesticidal composition and its use” (Sumitomo Chemical Company, Limited, priority 2010, dated 2015)
